From patent US11807634B2, “Cyclopropyl dihydroquinoline sulfonamide compounds” (AMGEN INC., priority 2020, dated 2023)

Experiments:
Human NaV1.7 = target: T1, Human NaV1.7 (Homo sapiens, UniProt Q15858); assay: Ionworks Barracuda (IWB) automated patch clamp assay; assay type: cell-based; conditions: human NaV1.7 currents in HEK cells, population patch clamp, state- and use-dependent voltage protocol; read-out: hNaV1.7 IWB-U IC50
T1 construct: expressed in transfected cells; host or cells: Spiking HEK cells (without Kir2.1 transfection)
Method: Ionworks Barracuda (IWB) Automated Patch Clamp Assay (Same Protocol for Both Hu Man and Mouse)
Human NaV1.7 currents were recorded in population patch-clamp mode with the IWB automated electrophysiology system (Molecular Devices, LLC, Sunnyvale, Calif.). Spiking HEK cells (without Kir2.1 transfection) were cultured and prepared for recordings as previously described for IonWorks Quattro testing^1. The external solution consisted of the following (in mM): NaCl 140, KCl 5, CaCl2 2, MgCl2 1, HEPES 10, and glucose 11, pH 7.4, with N-methyl-D-glucamine at 320 mOsmol. […] From a holding potential of −110 mV, currents were elicited by a train of 26 depolarizations of 150 ms duration to −20 mV at a frequency of 5 Hz. Cells were then clamped to −20 mV for a period of 4 minutes in the presence of a single concentration of test compound. Following this compound incubation period, cells were clamped to −110 mV for three seconds to recover unbound channels and put through the same 26 pulse voltage protocol as above. Peak inward current during the 26th pulse to −20 mV in the presence of compound was divided by the peak inward current evoked by the 26th pulse to −20 mV in the absence of compound to determine percent inhibition. Concentration-response curves of percent inhibition as a function of concentration were generated to calculate IC50 values as described in Kornecook, T. J.; Yin, R.; Altmann, S.; et al. Pharmacologic Characterization of AMG8379, a Potent and Selective Small Molecule Sulfonamide Antagonist of the Voltage-Gated Sodium Channel NaV1. 7.
The potency of the compounds of the present invention were evaluated on human NaV1.7 channels using the above described IonWorks Barracuda automated electrophysiology platform that evaluates the ability of compounds to block sodium conductance through NaV1.7 channels. A voltage-protocol that prosecutes both state-dependent as well as use-dependent inhibition was used as these modes of action are thought to be more relevant for the native state of NaV1.7 channels in pain sensing neurons in vivo.

CYP3A4 = assay: Human CYP 3A4 induction assay (mRNA, cryopreserved human hepatocytes); assay type: in vitro ADME
Method: Human CYP 3A4 Induction Assay
Cryopreserved human hepatocytes were seeded in 96-well collagen coated plates at 70,000 cells per well in hepatocyte plating media (HPM, final concentrations: 1× Dulbecco's Modified Eagle's Medium, 0.1 μM dexamethasone, 10% fetal bovine serum, 1× ITS, 1×PSG) followed by incubation at 37° C. under 5% CO2 and 90% relative humidity for 2 days to allow hepatocytes to form a confluent layer. On Day 3, hepatocytes were treated with either test compound or rifampin (20 μM, positive control for CYP3A induction) prepared in hepatocyte incubation media ((HIM, final concentrations: 1× William's Medium E, 0.1 μM dexamethasone, 1×ITS, 1×PSG). Treatment was performed for 72 hours with either 2 concentrations (2 μM or 10 μM) or a range of concentrations (0.001 μM to 100 μM) of the test compound to obtain full dose-response curve. Fresh media containing the relevant concentrations of the test compound was replaced every day until the samples were processed. After 72 hours of incubation, samples were processed for mRNA analysis using bDNA technology using manufacturer's instructions (Affymetrix, Fremont, Calif.). Cell viability was tested at the end of the experiment using MTT assay kit (Roche Diagnostics, Basel, Switzerland). Data was analyzed and presented as percent of control (POC) and Emax and EC50 obtained when appropriate according to guidance from Center for Drug Evaluation and Research (CDER), 2006, Guidance for Industry, Drug Interaction Studies—Study Design, Data Analysis, and Implications for Dosing and Labeling.
Cryopreserved human hepatocytes were seeded in 96-well collagen coated plates at 70,000 cells per well in hepatocyte plating media (HPM, final concentrations: 1× Dulbecco's Modified Eagle's Medium, 0.1 μM dexamethasone, 10% fetal bovine serum, 1×ITS, 1×PSG) followed by incubation at 37° C. under 5% CO2 and 90% relative humidity for 2 days to allow hepatocytes to form a confluent layer. On Day 3, hepatocytes were treated with either test compound or rifampin (20 μM, positive control for CYP3A induction) prepared in hepatocyte incubation media ((HIM, final concentrations: 1× William's Medium E, 0.1 μM dexamethasone, 1×ITS, 1×PSG). Treatment was performed for 72 hours with either 2 concentrations (2 μM or 10 μM) or a range of concentrations (0.001 μM to 100 μM) of the test compound to obtain full dose-response curve. Fresh media containing the relevant concentrations of the test compound was replaced every day until the samples were processed. After 72 hours of incubation, samples were processed for mRNA analysis using bDNA technology using manufacturer's instructions (Affymetrix, Fremont, Calif.). Cell viability was tested at the end of the experiment using MTT assay kit (Roche Diagnostics, Basel, Switzerland). Data was analyzed and presented as percent of control (POC) and Emax and EC50 obtained when appropriate, as described in Halladay, J. et al, 2012, An “all-inclusive” 96-well cytochrome P450 induction method: Measuring enzyme activity, mRNA levels, protein levels, and cytotoxicity from one well using cryopreserved human hepatocytes, Pharmacological and Toxicological Methods, 66:270-275.
The cytochrome P450 (CYP) is a well-known superfamily of enzymes that are responsible for the oxidative and reductive metabolic transformation of medications used in clinical practice. In addition, the CYP enzymes are commonly associated with causing many clinically relevant drug-drug interactions. Of the CYP enzymes, CYP3A4 is not only the most prevalent CYP enzyme in the liver and intestine, but is responsible for metabolism and elimination of approximately 50% of marketed drugs. In addition, CYP3A4 activity can be induced (or increased) or inhibited (decreased) in response to administration of certain drugs, thereby affecting concentrations of their own or certain concomitant drugs present in the body. […]

[1] = human hepatocytes, 10 uM test compound, 72 hours, mRNA, percent of control (rifampin positive control)

T1 sequence (Q15858 whole entry): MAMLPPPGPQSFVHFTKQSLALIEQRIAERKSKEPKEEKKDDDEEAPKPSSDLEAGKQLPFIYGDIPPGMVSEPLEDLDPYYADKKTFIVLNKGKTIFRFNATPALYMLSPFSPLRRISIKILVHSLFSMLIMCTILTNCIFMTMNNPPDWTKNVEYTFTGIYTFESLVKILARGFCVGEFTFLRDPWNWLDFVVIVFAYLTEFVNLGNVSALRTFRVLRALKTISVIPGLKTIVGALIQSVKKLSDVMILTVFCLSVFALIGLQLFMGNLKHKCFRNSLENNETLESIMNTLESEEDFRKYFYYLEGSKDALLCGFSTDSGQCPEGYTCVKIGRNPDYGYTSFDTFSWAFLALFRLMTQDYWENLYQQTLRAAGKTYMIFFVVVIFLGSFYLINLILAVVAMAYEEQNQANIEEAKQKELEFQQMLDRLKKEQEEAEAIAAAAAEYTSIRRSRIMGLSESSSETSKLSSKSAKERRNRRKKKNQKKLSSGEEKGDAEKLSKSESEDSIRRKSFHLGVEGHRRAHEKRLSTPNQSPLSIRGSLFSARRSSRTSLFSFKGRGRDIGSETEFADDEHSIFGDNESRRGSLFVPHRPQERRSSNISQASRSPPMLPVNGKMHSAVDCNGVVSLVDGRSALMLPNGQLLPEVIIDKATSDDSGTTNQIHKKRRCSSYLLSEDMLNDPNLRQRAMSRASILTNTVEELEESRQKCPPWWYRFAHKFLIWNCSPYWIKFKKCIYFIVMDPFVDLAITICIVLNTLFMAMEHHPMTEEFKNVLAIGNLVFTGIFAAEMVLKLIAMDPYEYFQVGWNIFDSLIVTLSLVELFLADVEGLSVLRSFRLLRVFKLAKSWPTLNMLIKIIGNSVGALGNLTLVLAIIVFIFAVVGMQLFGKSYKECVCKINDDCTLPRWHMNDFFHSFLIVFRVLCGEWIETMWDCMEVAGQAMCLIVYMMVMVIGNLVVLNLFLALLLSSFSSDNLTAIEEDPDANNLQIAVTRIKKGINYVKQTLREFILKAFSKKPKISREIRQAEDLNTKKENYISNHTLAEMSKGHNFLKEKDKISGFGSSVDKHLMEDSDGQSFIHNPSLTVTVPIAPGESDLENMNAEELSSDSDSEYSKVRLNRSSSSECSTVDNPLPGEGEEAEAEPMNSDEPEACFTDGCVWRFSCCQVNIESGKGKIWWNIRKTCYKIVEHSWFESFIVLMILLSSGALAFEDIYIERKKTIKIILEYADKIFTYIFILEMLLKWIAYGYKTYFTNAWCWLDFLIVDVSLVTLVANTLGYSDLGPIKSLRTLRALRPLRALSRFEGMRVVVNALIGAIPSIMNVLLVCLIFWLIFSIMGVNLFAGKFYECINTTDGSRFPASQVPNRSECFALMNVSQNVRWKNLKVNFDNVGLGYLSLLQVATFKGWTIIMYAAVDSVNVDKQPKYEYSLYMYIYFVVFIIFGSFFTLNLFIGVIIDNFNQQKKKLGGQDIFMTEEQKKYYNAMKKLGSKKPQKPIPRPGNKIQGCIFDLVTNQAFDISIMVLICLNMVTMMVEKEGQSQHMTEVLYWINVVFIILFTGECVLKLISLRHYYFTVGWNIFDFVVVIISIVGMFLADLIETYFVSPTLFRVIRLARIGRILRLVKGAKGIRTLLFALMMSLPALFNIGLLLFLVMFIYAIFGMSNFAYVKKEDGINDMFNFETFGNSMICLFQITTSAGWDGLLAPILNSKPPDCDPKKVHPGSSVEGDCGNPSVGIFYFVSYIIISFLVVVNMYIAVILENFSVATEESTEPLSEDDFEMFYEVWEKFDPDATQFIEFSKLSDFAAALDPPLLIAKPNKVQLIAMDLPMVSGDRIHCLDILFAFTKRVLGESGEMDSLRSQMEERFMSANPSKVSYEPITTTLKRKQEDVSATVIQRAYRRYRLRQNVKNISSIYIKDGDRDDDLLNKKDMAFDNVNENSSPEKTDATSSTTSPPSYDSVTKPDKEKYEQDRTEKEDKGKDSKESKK

Structure (SMILES) | IC50 (Human NaV1.7) [nM] | CYP3A4 mRNA Induct Hu 10 uM POC (CYP3A4; [1]) [%] | CYP3A4 mRNA Induct Hu 10 uM POC (CYP3A4; hepatocytes) [%]
COc1cc([C@@H]2C[C@H]2C(F)(F)F)c(Cl)cc1-n1c(=O)ccc2cc(S(=O)(=O)Nc3cccnn3)ccc21 (atropisomer, axis not shown; (P)) [Example 14, (P)-1-(5-chloro-2-methoxy-4-((1R,2R)-2-(trifluoromethyl)cyclopropyl)phenyl)-2-oxo-N-(pyridazin-3-yl)-1,2-dihydroquinoline-6-sulfonamide] | 19 | 46.59 | 
COc1cc([C@@H]2C[C@H]2C(F)(F)F)c(C)cc1-n1c(=O)ccc2cc(S(=O)(=O)Nc3ccon3)ccc21 (atropisomer, axis not shown; (P)) [Example 26, (P)-N-(isoxazol-3-yl)-1-(2-methoxy-5-methyl-4-((1R,2R)-2-(trifluoromethyl)cyclopropyl)phenyl)-2-oxo-1,2-dihydroquinoline-6-sulfonamide] | 19 | 35.39 | 
COc1cc([C@H]2C[C@H]2C2CC2)c(F)cc1-n1c(=O)ccc2cc(S(=O)(=O)Nc3ccon3)ccc21 (atropisomer, axis not shown; (P)) [Example 30, (P)-1-(4-((1S,2S)-[1,1′-bi(cyclopropan)]-2-yl)-5-fluoro-2-methoxyphenyl)-N-(isoxazol-3-yl)-2-oxo-1,2-dihydroquinoline-6-sulfonamide] | 26 |  | 60.34
COc1cc([C@@H]2C[C@H]2COC(F)(F)F)c(F)cc1-n1c(=O)ccc2cc(S(=O)(=O)Nc3ccon3)ccc21 (atropisomer, axis not shown; (P)) [Example 32, (P)-1-(5-fluoro-2-methoxy-4-((1R,2R)-2-((trifluoromethoxy)methyl)cyclopropyl)phenyl)-N-(isoxazol-3-yl)-2-oxo-1,2-dihydroquinoline-6-sulfonamide] | 9 | 64.54 | 
COc1cc([C@H]2C[C@@H]2COC(F)(F)F)c(F)cc1-n1c(=O)ccc2cc(S(=O)(=O)Nc3ccon3)ccc21 (atropisomer, axis not shown; (P)) [Example 33, (P)-1-(5-fluoro-2-methoxy-4-((1S,2S)-2-((trifluoromethoxy)methyl)cyclopropyl)phenyl)-N-(isoxazol-3-yl)-2-oxo-1,2-dihydroquinoline-6-sulfonamide] | 4 | 139.9 | 
COc1cc([C@@H]2C[C@H]2C(F)(F)F)c(F)cc1-n1c(=O)ccc2cc(S(=O)(=O)Nc3nncs3)ccc21 (atropisomer, axis not shown; (P)) [Example 40, (P)-1-(5-fluoro-2-methoxy-4-((1R,2R)-2-(trifluoromethyl)cyclopropyl)phenyl)-2-oxo-N-(1,3,4-thiadiazol-2-yl)-1,2-dihydroquinoline-6-sulfonamide] | 8 |  | 
COc1cc([C@@H]2C[C@H]2C(F)(F)F)c(F)cc1-n1c(=O)ccc2cc(S(=O)(=O)Nc3ccon3)c(F)cc21 (single isomer, unassigned) [Example 45] | 8 | 24.57 | 
